According to patent US8778966B2, “Quinolinone derivatives as PARP and tank inhibitors” (Janssen Pharmaceutica, NV, priority 2007, dated 2014):

Each compound was assayed on PC-3 cells (assay: Antiproliferative activity, Alamar Blue assay, PC-3 cells). Settings: Homo sapiens, PC-3, PC3 cells; read-out: PC3 antiproliferative activity pIC50 (converted).
Type: cell-based, human
Experimental: Human prostate cancer PC-3 cells obtained from the ATCC were cultured in HAM′S F12 medium supplemented with 1 mM Sodium Pyruvate, 1.5 g/L Sodium Bicarbonate, 50 μg/ml gentamicin, non-essential amino acids and 10% fetal calf serum.
Resazurin was purchased from Aldrich (Prod. No. 199303). Potassium ferrocyanide, potassium ferricyanide, KH2PO4 and K2HPO4 were purchased from Sigma (Prod. Nos. P9387, P8131, P5655 and P8281, respectively).
Potassium Phosphate Buffer 0.1 M (PPB) was made as follows: 2.72 gram KH2PO4 and 13.86 gram K2HPO4 were dissolved in 500 ml milli-Q H2O, the pH was adjusted to pH 7.4 and the volume was brought to 1 litre with milli-Q H2O; the buffer was filter sterilised and stored at room temperature. Resazurin stock solution (PPB-A) was prepared fresh by dissolving 45 mg resazurin in 15 ml PBS. 30 mM potassium ferricyanide (PPB-B) was prepared by dissolving 0.987 gram potassium ferricyanide in 100 ml PPB. 30 mM potassium ferrocyanide (PPB-C) was prepared by dissolving 1.266 gram potassium ferrocyanide in 100 ml PPB.
Mixture of PPB-A, PPB-B and PPB-C was prepared by mixing equal volumes of the respective solutions. Resazurin work solution (herein termed “Alamar Blue” solution) was prepared by diluting said mixture 20×(vol/vol) in PPB and filter sterilising; the Alamar Blue solution could be kept at 4° C. for a maximum of 2 weeks.
For experiments in 384 wells plates the cells were seeded at a density of 4.5×10^3 cells/ml in Falcon 384-well culture plates (Life Technologies, Merelbeke, Belgium), black with clear bottom, in 45 μl culture medium. Cells were allowed to adhere to plastic for 24 hr. The tested compound was pre-diluted (1/50 in culture medium) and 5 μl pre-diluted compound was added to the wells. Following 4-day incubation, 10 μl of the Alamar Blue solution was added to each well and the cells were further incubated for 4 hrs (HCT116) or 24 hrs (PC-3) at 37° C. The fluorescence intensity was measured for each well on a Fluorescence plate reader (Fluorskan, Labsystems, 540 nm excitation and 590 nm emission)
The antiproliferative activity was calculated as percentage of remaining viable cells in treated versus control (untreated cells) conditions. Within an experiment, the result for each experimental condition is the mean of 3 replicate wells. When appropriate, the experiments were repeated to establish full concentration-response curves. When appropriate, IC50-values (concentration of the drug, needed to reduce cell growth to 50% of the control) were computed using probit analysis for graded data (Finney, D. J., Probit Analyses, 2nd Ed. Chapter 10, Graded Responses, Cambridge University Press, Cambridge 1962). Herein the effects of test compounds are expressed as pIC50 (the negative log value of the IC50-value) (see Table 2).
Work on `C#Cc1cccc(CC(C)(C#N)c2ccc3cc(CC)c(=O)[nH]c3c2)c1` (racemic) [Compound 168] yielded an IC50 of 158 nM. `CCc1cc2ccc([C@@](C)(C#N)CCOc3ccccc3)cc2[nH]c1=O` (single isomer, unassigned) [Compound 150] gave an IC50 of 1580 nM. Compound `Cc1cc2ccc([C@@](C)(C#N)CCOc3ccccc3)cc2[nH]c1=O` (single isomer, unassigned) [Compound 164] has an IC50 of 1000 nM. Compound `CCc1cc2ccc(C(C)(C#N)Cc3cccc(C(=O)O)c3)cc2[nH]c1=O` (stereo not shown) [Compound 10] has an IC50 greater than 10000 nM. Work on `CCc1cc2ccc(C(C)(C#N)Cc3cccc(-c4nc(C)no4)c3)cc2[nH]c1=O` (stereo not shown) [Compound 11] yielded an IC50 of 1580 nM. With `CCc1cc2ccc(C(C)(C#N)Cc3cccc(C(=O)OC)c3)cc2[nH]c1=O` (stereo not shown) [Compound 12] the IC50 was 63.1 nM. For `CCc1cc2ccc(C(C)(C#N)Cc3cccc(C(=O)NC)c3)cc2[nH]c1=O` (stereo not shown) [Compound 13], the IC50 was 7940 nM. Work on `CCc1cc2ccc(C(C)(C#N)Cc3cccc(NS(C)(=O)=O)c3)cc2[nH]c1=O` (stereo not shown) [Compound 14] yielded an IC50 greater than 10000 nM. Compound `CCc1cc2ccc(C(C)(C#N)Cc3cccc(N)c3)cc2[nH]c1=O` (stereo not shown) [Compound 15] has an IC50 of 2510 nM. `CCc1cc2ccc(C(C)(C#N)Cc3cccc(NC(=O)N4CCOCC4)c3)cc2[nH]c1=O` (stereo not shown) [Compound 16] gave an IC50 greater than 10000 nM. For `CCc1cc2ccc(C(C)(C#N)Cc3ccccc3Br)cc2[nH]c1=O` (stereo not shown) [Compound 104], the IC50 was 1000 nM. For `CCc1cc2ccc(C(C)(C#N)Cc3ccccc3C)cc2[nH]c1=O` (stereo not shown) [Compound 105], the IC50 was 1000 nM. For `CCc1cc2ccc(C(C)(C#N)Cc3ccccc3F)cc2[nH]c1=O` (stereo not shown) [Compound 106], the IC50 was 794 nM. `CCc1cc2ccc(C(C)(C#N)Cc3cccc(C)c3)cc2[nH]c1=O` (stereo not shown) [Compound 107] was tested, and the IC50 was 251 nM. `CCc1cc2ccc(C(C)(C#N)Cc3ccc(C(F)(F)F)cc3)cc2[nH]c1=O` (stereo not shown) [Compound 108] was tested, and the IC50 was greater than 10000 nM. `CCc1cc2ccc(C(C)(C#N)Cc3cccc(C(F)(F)F)c3)cc2[nH]c1=O` (stereo not shown) [Compound 109] showed an IC50 of 631 nM. Compound `CCc1cc2ccc(C(C)(C#N)Cc3cccc(OC(F)(F)F)c3)cc2[nH]c1=O` (stereo not shown) [Compound 110] has an IC50 of 200 nM. `CCc1cc2ccc(C(C)(C#N)Cc3ccc(C#N)cc3)cc2[nH]c1=O` (stereo not shown) [Compound 111] gave an IC50 greater than 10000 nM. `CCc1cc2ccc(C(C)(C#N)Cc3cccc(F)c3)cc2[nH]c1=O` (stereo not shown) [Compound 112] was tested, and the IC50 was 398 nM. Compound `CCc1cc2ccc(C(C)(C#N)Cc3cccc(OC)c3)cc2[nH]c1=O` (stereo not shown) [Compound 113] has an IC50 of 251 nM. For `CCc1cc2ccc(C(C)(C#N)Cc3ccc(OC(F)(F)F)cc3)cc2[nH]c1=O` (stereo not shown) [Compound 114], the IC50 was 1580 nM. Work on `CCc1cc2ccc(C(C)(C#N)Cc3ccc(F)cc3)cc2[nH]c1=O` (stereo not shown) [Compound 115] yielded an IC50 of 631 nM. With `CCc1cc2ccc(C(C)(C#N)Cc3c(F)c(F)c(F)c(F)c3F)cc2[nH]c1=O` (stereo not shown) [Compound 116] the IC50 was 794 nM. `CCc1cc2ccc(C(C)(C#N)Cc3ccc(C)cc3)cc2[nH]c1=O` (stereo not shown) [Compound 117] was tested, and the IC50 was 2000 nM. For `CCc1cc2ccc(C(C)(C#N)Cc3ccc(Br)cc3)cc2[nH]c1=O` (stereo not shown) [Compound 118], the IC50 was 1260 nM. `CCc1cc2ccc(C(C)(C#N)Cc3ccc(OC)cc3)cc2[nH]c1=O` (stereo not shown) [Compound 119] was tested, and the IC50 was 2510 nM. `CCc1cc2ccc(C(C)(C#N)Cc3cccc(F)c3F)cc2[nH]c1=O` (stereo not shown) [Compound 120] gave an IC50 of 794 nM. Work on `CCc1cc2ccc(C(C)(C#N)Cc3cccc(Cl)c3Cl)cc2[nH]c1=O` (stereo not shown) [Compound 121] yielded an IC50 of 631 nM. With `CCc1cc2ccc(C(C)(C#N)Cc3ccc4ccccc4c3)cc2[nH]c1=O` (stereo not shown) [Compound 122] the IC50 was 398 nM. Compound `CCc1cc2ccc(C(C)(C#N)Cc3ccc4c(c3)nnn4C)cc2[nH]c1=O` (stereo not shown) [Compound 123] has an IC50 greater than 10000 nM. With `CCc1cc2ccc(C(C)(C#N)Cc3ccc4c(c3)OCCO4)cc2[nH]c1=O` (stereo not shown) [Compound 124] the IC50 was 2000 nM. `CCc1cc2ccc(C(C)(C#N)Cc3cc(C)cc(C)c3)cc2[nH]c1=O` (stereo not shown) [Compound 125] showed an IC50 of 251 nM. In the case of `CCc1cc2ccc(C(C)(C#N)Cc3cc(F)cc(Cl)c3)cc2[nH]c1=O` (stereo not shown) [Compound 126], the IC50 is reported as 200 nM. Compound `CCc1cc2ccc(C(C)(C#N)Cc3cc(F)cc(C(F)(F)F)c3)cc2[nH]c1=O` (stereo not shown) [Compound 127] has an IC50 of 1000 nM. Work on `CCc1cc2ccc(C(C)(C#N)Cc3cc(F)cc(F)c3)cc2[nH]c1=O` (stereo not shown) [Compound 128] yielded an IC50 of 200 nM. `CCc1cc2ccc(C(C)(C#N)Cc3cccc(S(C)(=O)=O)c3)cc2[nH]c1=O` (stereo not shown) [Compound 129] was tested, and the IC50 was 5010 nM. Compound `CCc1cc2ccc(C(C)(C#N)Cc3cccc(Cl)c3F)cc2[nH]c1=O` (stereo not shown) [Compound 130] has an IC50 of 398 nM. Work on `CCc1cc2ccc(C(C)(C#N)Cc3cc(C(F)(F)F)cc(C(F)(F)F)c3)cc2[nH]c1=O` (stereo not shown) [Compound 131] yielded an IC50 greater than 10000 nM. `CCc1cc2ccc(C(C)(C#N)Cc3cccc(C)c3F)cc2[nH]c1=O` (stereo not shown) [Compound 132] was tested, and the IC50 was 631 nM. Work on `CCc1cc2ccc(C(C)(C#N)Cc3cc(Br)cc(Br)c3)cc2[nH]c1=O` (stereo not shown) [Compound 133] yielded an IC50 of 501 nM. Work on `CCc1cc2ccc(C(C)(C#N)Cc3cccc(C(F)(F)F)c3F)cc2[nH]c1=O` (stereo not shown) [Compound 134] yielded an IC50 of 1000 nM. Work on `CCc1cc2ccc(C(C)(C#N)Cc3c(Cl)cccc3Cl)cc2[nH]c1=O` (stereo not shown) [Compound 135] yielded an IC50 of 1000 nM. `CCc1cc2ccc(C(C)(C#N)Cc3c(Cl)cccc3Br)cc2[nH]c1=O` (stereo not shown) [Compound 136] gave an IC50 of 1000 nM. With `CCc1cc2ccc(C(C)(C#N)Cc3ccc(F)cc3F)cc2[nH]c1=O` (stereo not shown) [Compound 137] the IC50 was 794 nM. `CCc1cc2ccc(C(C)(C#N)Cc3c(F)cccc3F)cc2[nH]c1=O` (stereo not shown) [Compound 138] showed an IC50 of 1000 nM. `CCc1cc2ccc(C(C)(C#N)Cc3ccc(F)cc3Br)cc2[nH]c1=O` (stereo not shown) [Compound 139] showed an IC50 of 794 nM. For `CCc1cc2ccc(C(C)(C#N)Cc3cccc(Cl)c3)cc2[nH]c1=O` (stereo not shown) [Compound 140], the IC50 was 631 nM. Work on `CCc1cc2ccc(C(C)(C#N)Cc3cc(Cl)cc(Cl)c3)cc2[nH]c1=O` (stereo not shown) [Compound 141] yielded an IC50 of 79.4 nM. Work on `CCOc1ccccc1OCCC(C)(C#N)c1ccc2cc(CC)c(=O)[nH]c2c1` (stereo not shown) [Compound 142] yielded an IC50 of 316 nM. Work on `CCc1cc2ccc(C(C)(C#N)CCOc3cccc(C)c3)cc2[nH]c1=O` (stereo not shown) [Compound 143] yielded an IC50 of 794 nM. `CCc1cc2ccc(C(C)(C#N)CCOc3ccc(F)cc3)cc2[nH]c1=O` (stereo not shown) [Compound 144] was tested, and the IC50 was 631 nM. In the case of `CCc1cc2ccc(C(C)(C#N)CCOc3ccccc3)cc2[nH]c1=O` (stereo not shown) [Compound 145], the IC50 is reported as 501 nM. `CCc1cc2ccc(C(C)(C#N)CCOc3ccc(Cl)cc3)cc2[nH]c1=O` (stereo not shown) [Compound 146] gave an IC50 of 501 nM. `CCc1cc2ccc(C(C)(C#N)CCOc3ccc(OC)cc3)cc2[nH]c1=O` (stereo not shown) [Compound 147] gave an IC50 of 794 nM. Work on `CCc1cc2ccc(C(C)(C#N)CCOc3ccccc3C)cc2[nH]c1=O` (stereo not shown) [Compound 148] yielded an IC50 of 794 nM. `CCc1cc2ccc(C(C)(C#N)CCOc3ccc(C)cc3)cc2[nH]c1=O` (stereo not shown) [Compound 149] showed an IC50 of 1000 nM. `CCc1cc2ccc(C(C)(C#N)CCOc3cccc(Cl)c3)cc2[nH]c1=O` (stereo not shown) [Compound 151] was tested, and the IC50 was 2000 nM. `CCc1cc2ccc(C(C)(C#N)CCOc3ccccc3Cl)cc2[nH]c1=O` (stereo not shown) [Compound 152] gave an IC50 of 1580 nM. For `CCc1cc2ccc(C(C)(C#N)CCOc3ccccc3Br)cc2[nH]c1=O` (stereo not shown) [Compound 153], the IC50 was 631 nM. For `CCc1cc2ccc(C(C)(C#N)CCOc3ccc(Cl)cc3Cl)cc2[nH]c1=O` (stereo not shown) [Compound 154], the IC50 was 398 nM.

Same assay, conditions: PC3 cells
In the case of `CCc1cc2ccc(C(C)(C#N)CC3COc4ccccc4O3)cc2[nH]c1=O` (single isomer, unassigned) [Compound 48], the “PC3 antiproliferative activity pIC50” value is reported as 5.4.
